From patent publication US8039486B2, “Indole, azaindole and related heterocyclic N-substituted piperazine derivatives” (priority 2003, dated 2011) come the findings set out here.

The assay has as its system HIV-1 single-round infectious reporter virus. As to the kind of experiment: Single-round infectious HIV-1 luciferase reporter virus infection of HeLa CD4 cells. Conditions: Human immunodeficiency virus 1, HeLa, 72 h, read-out: EC50 Group from Table 1. The assay is classed as cell-based. As to the method:
• Virus production—Human embryonic Kidney cell line, 293, was propagated in Dulbecco's Modified Eagle Medium (Invitrogen, Carlsbad, Calif.) containing 10% fetal Bovine serum (FBS, Sigma, St. Louis, Mo.). • Virus infection—Human epithelial cell line, HeLa, expressing the HIV-1 receptor CD4 was propagated in Dulbecco's Modified Eagle Medium (Invitrogen, Carlsbad, Calif.) containing 10% fetal Bovine serum (FBS, Sigma, St. Louis, Mo.) and supplemented with 0.2 mg/mL Geneticin (Invitrogen, Carlsbad, Calif.). Virus-Single-round infectious reporter virus was produced by co-transfecting human embryonic Kidney 293 cells with an HIV-1 envelope DNA expression vector and a proviral cDNA containing an envelope deletion mutation and the luciferase reporter gene inserted in place of HIV-1 nef sequences (Chen et al, Ref 41). Transfections were performed using lipofectAMINE PLUS reagent as described by the manufacturer (Invitrogen, Carlsbad, Calif.). Experiment • 1. HeLa CD4 cells were plated in 96 well plates at a cell density of 1×10^4 cells per well in 100 μl Dulbecco's Modified Eagle Medium containing 10% fetal Bovine serum and incubated overnight. • 2. Compound was added in a 2 μl dimethylsulfoxide solution, so that the final assay concentration would be ≦10 μM. • 3. 100 μl of single-round infectious reporter virus in Dulbecco's Modified Eagle Medium was then added to the plated cells and compound at an approximate multiplicity of infection (MOI) of 0.01, resulting in a final volume of 200 μl per well. • 4. Virally-infected cells were incubated at 37 degrees Celsius, in a CO2 incubator, and harvested 72 h after infection. • 5. Viral infection was monitored by measuring luciferase expression from viral DNA in the infected cells using a luciferase reporter gene assay kit, as described by the manufacturer (Roche Molecular Biochemicals, Indianapolis, Ind.). Infected cell supernatants were removed and 50 μl of lysis buffer was added per well. After 15 minutes, 50 μl of freshly-reconstituted luciferase assay reagent was added per well. Luciferase activity was then quantified by measuring luminescence using a Wallac microbeta scintillation counter. • 6. The percent inhibition for each compound was calculated by quantifying the level of luciferase expression in cells infected in the presence of each compound as a percentage of that observed for cells infected in the absence of compound and subtracting such a determined value from 100. • 7. An EC50 provides a method for comparing the antiviral potency of the compounds of this invention. The effective concentration for fifty percent inhibition (EC50) was calculated with the Microsoft Excel Xlfit curve fitting software. For each compound, curves were generated from percent inhibition calculated at 10 different concentrations by using a four paramenter logistic model (model 205). Table 1 is the key for the data in Table 2. Results
On the technique in general: In a reporter assay the amount or activity of a reporter protein is the signal.
The EC50 is the concentration that produces a half-maximal response. `O=C(C(=O)N1CCN(c2nccc3ccccc23)CC1)c1c[nH]c2c(-c3ncon3)ccc(F)c12` [Example 1]: the EC50 was under 1000 nM. The value for `O=C(C(=O)N1CCN(c2nccc3ccoc23)CC1)c1c[nH]c2c(-c3ncon3)ccc(F)c12` [Example 2] was under 1000 nM; that for `O=C(C(=O)N1CCN(c2ncnc3ccccc23)CC1)c1c[nH]c2c(-c3ncon3)ccc(F)c12` [Example 3] was under 1000 nM; that for `COc1ccc(Br)c2[nH]cc(C(=O)C(=O)N3CCN(c4nccc5ccccc45)CC3)c12` [Example 4] was under 1000 nM. For `COc1ccc(-n2ccnc2)c2[nH]cc(C(=O)C(=O)N3CCN(c4nccc5ccccc45)CC3)c12` [Example 5] the value was under 1000 nM; for `COc1ccc(-n2cccc2)c2[nH]cc(C(=O)C(=O)N3CCN(c4nccc5ccccc45)CC3)c12` [Example 6], under 1000 nM. For `COc1cnc(C#N)c2[nH]cc(C(=O)C(=O)N3CCN(c4nccc5ccccc45)CC3)c12` [Example 7] the value was under 1000 nM. On to `COc1ncc(OC)c2c(C(=O)C(=O)N3CCN(c4ncnc5ccccc45)CC3)c[nH]c12` [Example 9], for which the concentration giving a half-maximal response (EC50) is under 1000 nM. Turning to `COc1ccc(-c2nc(C)n[nH]2)c2[nH]cc(C(=O)C(=O)N3CCN(c4nccc5ccccc45)CC3)c12` [Example 11], the EC50 was under 1000 nM. The value for `COc1ccc(C(N)=O)c2[nH]cc(C(=O)C(=O)N3CCN(c4nccc5ccccc45)CC3)c12` [Example 12] was under 1000 nM. For `CCOC(=O)c1ccc(OC)c2c(C(=O)C(=O)N3CCN(c4nccc5ccccc45)CC3)c[nH]c12` [Example 13] the value was under 1000 nM; for `COc1ccc(/C(N)=N\O)c2[nH]cc(C(=O)C(=O)N3CCN(c4nccc5ccccc45)CC3)c12` [Example 14], under 1000 nM. The value for `COc1ccc(-c2nn[nH]n2)c2[nH]cc(C(=O)C(=O)N3CCN(c4nccc5ccccc45)CC3)c12` [Example 15] was under 1000 nM; that for `COc1ccc(-c2nnn(C)n2)c2[nH]cc(C(=O)C(=O)N3CCN(c4nccc5ccccc45)CC3)c12` [Example 16] was under 1000 nM; that for `COc1ccc(-c2ncon2)c2[nH]cc(C(=O)C(=O)N3CCN(c4nccc5ccccc45)CC3)c12` [Example 17] was under 1000 nM. With `COc1ccc(C(=N)NC2CC2)c2[nH]cc(C(=O)C(=O)N3CCN(c4nccc5ccccc45)CC3)c12` [Example 18], the EC50 was under 1000 nM. The value for `COc1ccc(-c2nc3ccccc3[nH]2)c2[nH]cc(C(=O)C(=O)N3CCN(c4nccc5ccccc45)CC3)c12` [Example 19] was under 1000 nM. The value for `COc1ccc(-c2noc(C)n2)c2[nH]cc(C(=O)C(=O)N3CCN(c4nccc5ccccc45)CC3)c12` [Example 20] was under 1000 nM.

As to `COc1ccc(-c2ncn[nH]2)c2[nH]cc(C(=O)C(=O)N3CCN(c4nccc5ccccc45)CC3)c12` [Example 21], the half-maximal effective concentration (EC50) is under 1000 nM.

On to `COc1ccc(-c2nc(-c3cccnc3)n[nH]2)c2[nH]cc(C(=O)C(=O)N3CCN(c4nccc5ccccc45)CC3)c12` [Example 22], for which the EC50 was under 1000 nM. For the molecule `COc1ccc(C(=N)NNC(=O)c2cccnc2)c2[nH]cc(C(=O)C(=O)N3CCN(c4nccc5ccccc45)CC3)c12` [Example 23], the concentration giving a half-maximal response (EC50) was under 1000 nM. The value for `COc1ccc(-c2nc(CC#N)n[nH]2)c2[nH]cc(C(=O)C(=O)N3CCN(c4nccc5ccccc45)CC3)c12` [Example 24] was under 1000 nM. For `COc1ccc(C(=N)NNC(=O)CC#N)c2[nH]cc(C(=O)C(=O)N3CCN(c4nccc5ccccc45)CC3)c12` [Example 25] the value was under 1000 nM. Take `COC(=O)Cn1nnc(-c2ccc(OC)c3c(C(=O)C(=O)N4CCN(c5nccc6ccccc56)CC4)c[nH]c23)n1` [Example 26]: the EC50 is under 1000 nM. For `COc1ccc(-c2nnn(CC(=O)O)n2)c2[nH]cc(C(=O)C(=O)N3CCN(c4nccc5ccccc45)CC3)c12` [Example 27] the value was under 1000 nM. With `CNC(=O)Cn1nnc(-c2ccc(OC)c3c(C(=O)C(=O)N4CCN(c5nccc6ccccc56)CC4)c[nH]c23)n1` [Example 28], the 50% effective concentration (EC50) is under 1000 nM. As to `COc1ccc(-c2nnn(CC(N)=O)n2)c2[nH]cc(C(=O)C(=O)N3CCN(c4nccc5ccccc45)CC3)c12` [Example 29], the EC50 is under 1000 nM. The value for `COc1ccc(-c2cnccn2)c2[nH]cc(C(=O)C(=O)N3CCN(c4nccc5ccccc45)CC3)c12` [Example 30] was under 1000 nM; that for `COc1ccc(-n2cncn2)c2[nH]cc(C(=O)C(=O)N3CCN(c4nccc5ccccc45)CC3)c12` [Example 31] was under 1000 nM. The value for `COC(=O)Cc1n[nH]c(-c2ccc(OC)c3c(C(=O)C(=O)N4CCN(c5nccc6ccccc56)CC4)c[nH]c23)n1` [Example 32] was under 1000 nM; that for `COc1ccc(-c2nc(CC(=O)O)n[nH]2)c2[nH]cc(C(=O)C(=O)N3CCN(c4nccc5ccccc45)CC3)c12` [Example 33] was under 1000 nM; that for `CNC(=O)Cc1n[nH]c(-c2ccc(OC)c3c(C(=O)C(=O)N4CCN(c5nccc6ccccc56)CC4)c[nH]c23)n1` [Example 34] was under 1000 nM.

For the molecule `COc1ccc(-c2nc(CC(N)=O)n[nH]2)c2[nH]cc(C(=O)C(=O)N3CCN(c4nccc5ccccc45)CC3)c12` [Example 35], the half-maximal effective concentration (EC50) is under 1000 nM. For `COc1cnc(-n2cncn2)c2[nH]cc(C(=O)C(=O)N3CCN(c4nccc5ccccc45)CC3)c12` [Example 36] the value was under 1000 nM; for `O=C(C(=O)N1CCN(c2nccc3ccccc23)CC1)c1c[nH]c2c(Cl)ccnc12` [Example 37], under 1000 nM; for `O=C(C(=O)N1CCN(c2nccc3ccccc23)CC1)c1c[nH]c2c(-c3nccs3)ccnc12` [Example 38], under 1000 nM. For `COc1cnc(-n2cnc(C)n2)c2[nH]cc(C(=O)C(=O)N3CCN(c4ccnc5ccccc45)CC3)c12` [Example 39] the value was under 1000 nM; for `Cc1cc(N2CCN(C(=O)C(=O)c3c[nH]c4c(-c5ncon5)ccc(F)c34)CC2)c2ccccc2n1` [Example 40], under 1000 nM; for `COc1ccc(C#N)c2[nH]cc(C(=O)C(=O)N3CCN(c4nccc5ccccc45)CC3)c12` [Example 43], under 1000 nM. The value for `COc1ccc(C#N)c2[nH]cc(C(=O)C(=O)N3CCN(c4ncnc5ccccc45)CC3)c12` [Example 44] was under 1000 nM. For `COc1cnc(C#N)c2[nH]cc(C(=O)C(=O)N3CCN(c4ncnc5ccccc45)CC3)c12` [Example 45], the 50% effective concentration (EC50) is under 1000 nM. The value for `COc1cnc(-n2cnc(C)n2)c2[nH]cc(C(=O)C(=O)N3CCN(c4ncnc5ccccc45)CC3)c12` [Example 46] was under 1000 nM; that for `COc1cnc(-n2cncn2)c2[nH]cc(C(=O)C(=O)N3CCN(c4ncnc5ccccc45)CC3)c12` [Example 47] was under 1000 nM; that for `O=C(C(=O)N1CCN(c2ncnc3ccccc23)CC1)c1c[nH]c2c(-n3ccnn3)ncc(F)c12` [Example 48] was under 1000 nM.

For the molecule `COc1cnc(C(N)=O)c2[nH]cc(C(=O)C(=O)N3CCN(c4ncnc5ccccc45)CC3)c12` [Example 49], the EC50 was under 1000 nM. For `COc1cnc(C(=O)O)c2[nH]cc(C(=O)C(=O)N3CCN(c4ncnc5ccccc45)CC3)c12` [Example 50] the value was under 1000 nM; for `COc1cnc(-n2nccn2)c2[nH]cc(C(=O)C(=O)N3CCN(c4ncnc5ccccc45)CC3)c12` [Example 51], under 1000 nM.
